According to patent publication US4929623A, “Benzothiazole derivative” (Eisai Co., Ltd., priority 1987, dated 1990):

The molecules below were run on generation of leukotriene C4 (LT) from sliced lung of guinea pig (assay: Effect on generation of leukotriene C4 from sliced lung of guinea pig (passively sensitized, ovalbumin challenge)). Conditions: 3 μM test compound, 10 min preincubation, ovalbumin 10 μg/ml, 15 min, 37° C., 3 µM.
Type: cell-based, guinea pig (male Hartley)
Procedure: Effect on generation of leukotriene C4 (LT) from sliced lung of guinea pig
An antiovalbumin guinea pig serum (1/10 dilution; 0.5 ml/100 g) was intravenously injected into a male Hartley guinea pig (300-350 g) for passive sensitization. 16 to 18 hr after the passive sensitization, the blood was removed by circulation of the Tyrode solution and the lung was extirpated. The extirpated lung was cut into small pieces having a size of 1 mm×1 mm×1 mm while cooling the lung with ice. The pieces were washed, and 150 mg of the pieces was suspended on 1.8 ml of the Tyrode solution, followed by incubation at 37° C. for 5 min. A 3 μM test compound (the compound of the present invention) solution was added thereto, followed by incubation for 10 min. An antigen solution (ovalbumin; a final concentration of 10 μg/ml) was added thereto, followed by incubation for additional 15 min. The mixture was filtered through a nylon mesh. 100 μl of the filtrate was subjected to determination of the amount of leukotriene C4 (LTC4) with an RzA kit.
The percentage leukotriene C4 (LTC4) liberation inhibition of each compound (indicated by compound No. used in the Examples which will be described later) is shown in Table 1.
With `Cc1c(O)c(C)c2sc(N)nc2c1C` [Compound 92] the “Percentage inhibition (leukotriene C4 (LTC4) liberation inhibition)” value was 64%.

Same assay, conditions: Cavia porcellus, 3 μM test compound, 10 min preincubation, ovalbumin 10 μg/ml, 15 min, 37° C., read-out: Percentage inhibition (leukotriene C4 (LTC4) liberation inhibition)
Work on `Cc1ccc2sc(N)nc2c1O` [Compound 19] yielded an inhibition at 3 µM of 36%. In the case of `CCOC(=O)C(=O)Nc1nc2c(C)c(C)c(O)c(C)c2s1` [Compound 60], the inhibition at 3 µM is reported as 36%. `COc1c(O)c(C)c2sc(N)nc2c1OC` [Compound 110] was tested, and the inhibition at 3 µM was 41%. Work on `Cc1c(O)c(C)c2sc(NCc3ccc(S(N)(=O)=O)cc3)nc2c1C` [Compound 34, 6-hydroxy-2-(4-sulfamoylbenzylamino)-4,5,7-trimethyl-benzothiazole] yielded an inhibition at 3 µM of 70%. For `CCOC(=O)CCCNc1nc2c(C)c(C)c(O)c(C)c2s1` [Compound 88], the inhibition at 3 µM was 79%. `Cc1c(O)c(C(C)C)c2sc(N)nc2c1C` [Compound 9] gave an inhibition at 3 µM of 36%. For `CCN(Cc1ccc(S(N)(=O)=O)cc1)c1nc2c(C)c(C)c(O)c(C)c2s1` [Compound 35], the inhibition at 3 µM was 68%. For `CC(C)c1cc2nc(N(CCO)CCO)sc2c(C(C)C)c1O` [Compound 123], the inhibition at 3 µM was 71%. Molecule `Cc1c(O)c(C)c2sc(NS(=O)(=O)c3ccccc3)nc2c1C` [Compound 71] has an inhibition at 3 µM of 53%. `CCOC(=O)CCC(=O)Nc1nc2c(C)c(C)c(O)c(C)c2s1` [Compound 64] gave an inhibition at 3 µM of 32%. In the case of `CC(C)c1cc2nc(NC(=O)N(C)C)sc2c(C(C)C)c1O` [Compound 68], the inhibition at 3 µM is reported as 70%. In the case of `Cc1c(O)c(C)c2sc(NS(C)(=O)=O)nc2c1C` [Compound 69], the inhibition at 3 µM is reported as 42%. For `COc1ccc(Nc2nc3c(C)c(C)c(O)c(C)c3s2)cc1` [Compound 99], the inhibition at 3 µM was 43%. For `CC(C)c1cc2nc(Nc3ccc(S(N)(=O)=O)cc3)sc2c(C(C)C)c1O` [Compound 122], the inhibition at 3 µM was 34%. With `COC(=O)c1ccc(CNc2nc3c(C)c(C)c(O)c(C)c3s2)cc1` [Compound 136] the inhibition at 3 µM was 67%. For `Cc1c(O)c(C)c2sc(N(C)C)nc2c1C` [Compound 94], the inhibition at 3 µM was 79%. `Nc1nc2c(O)c(Cl)ccc2s1` [Compound 20] was tested, and the inhibition at 3 µM was 33%. `Cc1c(O)c(C)c2sc(Nc3ccc(C(=O)O)cc3)nc2c1C` [Compound 101, 6-hydroxy-2-(4-carboxylphenylamino)-4,5,7-trimethylbenzothiazole] gave an inhibition at 3 µM of 37%. `CC(C)c1cc2nc(NCc3ccccn3)sc2c(C(C)C)c1O` [Compound 126, 6-hydroxy-2-(2-pyridylmethylamino)-5,7-diisopropylbenzothiazole] gave an inhibition at 3 µM of 66%. In the case of `Cc1c(O)c(C(C)(C)C)cc2nc(N)sc12` [Compound 22], the inhibition at 3 µM is reported as 61%. `CC(C)c1cc2nc(N3CCC(O)CC3)sc2c(C(C)C)c1O` [Compound 128] showed an inhibition at 3 µM of 60%. In the case of `CC(=O)Nc1nc2c(C)c(C)c(O)c(C)c2s1` [Compound 53], the inhibition at 3 µM is reported as 69%. In the case of `CCN(Cc1ccc(S(N)(=O)=O)cc1)c1nc2cc(C(C)C)c(O)c(C(C)C)c2s1` [Compound 40], the inhibition at 3 µM is reported as 32%. `CC(C)c1cc2nc(NS(=O)(=O)N(C)C)sc2c(C(C)C)c1O` [Compound 75] gave an inhibition at 3 µM of 50%. `CC(C)c1cc2nc(N)sc2c(C(C)C)c1O` [Compound 10] showed an inhibition at 3 µM of 78%. With `CCNc1nc2c(C)c(C)c(O)c(C)c2s1` [Compound 26] the inhibition at 3 µM was 85%. `Cc1c(O)c(C)c2sc(NCc3ccc(S(=O)(=O)N(CCO)CCO)cc3)nc2c1C` [Compound 31] was tested, and the inhibition at 3 µM was 62%. For `Cc1c(O)c(C)c2sc(NC(=O)N(C)C)nc2c1C` [Compound 58], the inhibition at 3 µM was 64%. With `Cc1c(O)c(C)c2sc(Nc3ccc(CCC(=O)O)cc3)nc2c1C` [Compound 108] the inhibition at 3 µM was 30%. Work on `CCCCCNc1nc2c(C)c(C)c(O)c(C)c2s1` [Compound 95] yielded an inhibition at 3 µM of 72%. `NS(=O)(=O)c1ccc(CNc2nc3cc(Br)c(O)c(Br)c3s2)cc1` [Compound 86, 6-hydroxy-2-(4-sulfamoylbenzylamino)-5,7-dibromobenzothiazole] gave an inhibition at 3 µM of 31%. `Nc1nc2c(O)c(Br)cc(Br)c2s1` [Compound 21] gave an inhibition at 3 µM of 48%. `Cc1c(O)c(C)c2sc(NCC(C)C)nc2c1C` [Compound 24] showed an inhibition at 3 µM of 95%. `Cc1c(O)c(C)c2sc(NC(=O)c3ccccc3)nc2c1C` [Compound 54] gave an inhibition at 3 µM of 58%. In the case of `CC(C)c1cc2nc(Nc3ccc(C(=O)O)cc3)sc2c(C(C)C)c1O` [Compound 113, 6-hydroxy-2-(4-carboxylphenylamino)-5,7-diisopropylbenzothiazole], the inhibition at 3 µM is reported as 49%. For `CC(C)c1cc2nc(NCc3ccc(S(N)(=O)=O)cc3)sc2c(C(C)C)c1O` [Compound 37], the inhibition at 3 µM was 39%. `Cc1c(O)c(C)c2sc(NC(=O)c3cccnc3)nc2c1C` [Compound 51] was tested, and the inhibition at 3 µM was 56%. In the case of `Cc1c(O)c(C)c2sc(NCc3ccc(N(C)C)cc3)nc2c1C` [Compound 28], the inhibition at 3 µM is reported as 34%. `Cc1c(O)c(C)c2sc(NCC3CCCCC3)nc2c1C` [Compound 25] was tested, and the inhibition at 3 µM was 36%. In the case of `Nc1nc2cc(Br)c(O)c(Br)c2s1` [Compound 13], the inhibition at 3 µM is reported as 35%. Work on `Cc1c(O)c(C)c2sc(NS(=O)(=O)C(C)C)nc2c1C` [Compound 70] yielded an inhibition at 3 µM of 30%. Work on `CC(C)c1c(O)c(C(C)C)c2sc(N)nc2c1Cl` [Compound 76] yielded an inhibition at 3 µM of 72%. In the case of `Cc1c(O)c(C)c2sc(NCc3ccc(C(=O)O)cc3)nc2c1C` [Compound 135], the inhibition at 3 µM is reported as 41%. For `Cc1c(O)c(C)c2sc(NCc3ccc(S(=O)(=O)NCCO)cc3)nc2c1C` [Compound 33], the inhibition at 3 µM was 46%. `Cc1c(O)c(C)c2sc(NC(=O)CN(C)C)nc2c1C` [Compound 57] gave an inhibition at 3 µM of 42%. With `Cc1c(O)c(C)c2sc(NCc3ccc(Cl)cc3Cl)nc2c1C` [Compound 137] the inhibition at 3 µM was 40%. `Cc1c(O)c(C)c2sc(NCCCC(=O)NC3CCCCC3)nc2c1C` [Compound 91] gave an inhibition at 3 µM of 53%. `Cc1c(O)c(C)c2sc(Nc3cc(Cl)c(O)c(Cl)c3)nc2c1C` [Compound 106] showed an inhibition at 3 µM of 49%. `CCN(CC)S(=O)(=O)c1ccc(CNc2nc3c(C)c(C)c(O)c(C)c3s2)cc1` [Compound 32] gave an inhibition at 3 µM of 44%. `Cc1c(O)c(C)c2sc(NCc3ccc(S(C)(=O)=O)cc3)nc2c1C` [Compound 30] showed an inhibition at 3 µM of 79%. For `NS(=O)(=O)c1ccc(CNc2nc3c(O)c(Br)cc(Br)c3s2)cc1` [Compound 87], the inhibition at 3 µM was 32%. Work on `CCOC(=O)Nc1nc2c(C)c(C)c(O)c(C)c2s1` [Compound 59] yielded an inhibition at 3 µM of 71%. `Cc1c(O)c(C)c2sc(NCc3ccc(C(N)=O)cc3)nc2c1C` [Compound 141] showed an inhibition at 3 µM of 53%. Work on `Nc1nc2c(cc(O)c3ncccc32)s1` [Compound 17] yielded an inhibition at 3 µM of 35%. For `CC(C)c1cc2nc(N3CCOCC3)sc2c(C(C)C)c1O` [Compound 124], the inhibition at 3 µM was 72%. In the case of `Cc1c(O)c(C)c2sc(N3CCCC3=O)nc2c1C` [Compound 90], the inhibition at 3 µM is reported as 41%. For `Cc1c(O)c(C)c2sc(Nc3ccc(O)cc3)nc2c1C` [Compound 98], the inhibition at 3 µM was 60%. `CC(C)c1cc2nc(Nc3ccccc3)sc2c(C(C)C)c1O` [Compound 115] was tested, and the inhibition at 3 µM was 39%. With `Cc1c(O)c(C)c2sc(NCc3ccc(NS(C)(=O)=O)cc3)nc2c1C` [Compound 29] the inhibition at 3 µM was 43%. `Cc1c(O)c(C)c2sc(NC(=O)C3CCCCC3)nc2c1C` [Compound 52] was tested, and the inhibition at 3 µM was 62%. Molecule `Cc1c(O)c(C)c2sc(NCc3ccccc3)nc2c1C` [Compound 134] has an inhibition at 3 µM of 88%. Molecule `CNc1nc2c(C)c(C)c(O)c(C)c2s1` [Compound 93] has an inhibition at 3 µM of 83%. For `Cc1c(O)c(C)c2sc(Nc3ccc(S(N)(=O)=O)cc3)nc2c1C` [Compound 103], the inhibition at 3 µM was 48%. For `Cc1c(O)c(C)c2sc(NC(=O)C(=O)O)nc2c1C` [Compound 61], the inhibition at 3 µM was 36%. `CC(C)=CCNc1nc2c(C)c(C)c(O)c(C)c2s1` [Compound 96] was tested, and the inhibition at 3 µM was 77%. `Cc1c(O)c(C)c2sc(N)nc2c1C` [Compound 8, 6-hydroxy-2-amino-4,5,7-trimethylbenzothiazole] gave an inhibition at 3 µM of 75%.
